Data from PubChem BioAssay AID248 (DTP/NCI, 2004).
Several values for one entry are separate records, joined by “and”; a condition that tells them apart may be missing. Equal values may be shown once. Inconclusive results and toxic doses are left out. Rule as the data show it: active = T/C of 150% or more; inactive = T/C below 125%.

Test system: L1210 leukemia ip in BDF1 mice, survival T/C
Assay: NCI In Vivo Anticancer Drug Screen. Data for tumor model L1210 Leukemia (intraperitoneal) in B6D2F1 (BDF1) mice
Conditions: endpoint: mean survival time, higher = longer survival
Summary of the method: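 Survival endpoint. Drug-treated group vs vehicle group, expressed as T divided by C. Tumor passaged by transplantation.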

[1] = dose: 100.0 mg/kg/injection, schedule: Q04DX002 (ip), vehicle: Klucel (hydroxypropylcellulose) (HPC)
[2] = dose: 200.0 mg/kg/injection, schedule: Q04DX002 (ip), vehicle: Klucel (hydroxypropylcellulose) (HPC)
[3] = dose: 400.0 mg/kg/injection, schedule: Q04DX002 (ip), vehicle: Klucel (hydroxypropylcellulose) (HPC)
[4] = dose: 100.0 mg/kg/injection, schedule: Q01DX009 (ip), vehicle: saline
[5] = dose: 200.0 mg/kg/injection, schedule: Q01DX009 (ip), vehicle: saline
[6] = dose: 100.0 mg/kg/injection, schedule: Q01DX009 (ip), vehicle: saline with Tween-80
[7] = dose: 50.0 mg/kg/injection, schedule: Q01DX009 (ip), vehicle: Klucel (hydroxypropylcellulose) (HPC)
[8] = dose: 100.0 mg/kg/injection, schedule: Q01DX009 (ip), vehicle: Klucel (hydroxypropylcellulose) (HPC)
[9] = dose: 100.0 mg/kg/injection, schedule: Q04DX003 (ip), vehicle: Klucel (hydroxypropylcellulose) (HPC)
[10] = dose: 200.0 mg/kg/injection, schedule: Q01DX009 (ip), vehicle: Klucel (hydroxypropylcellulose) (HPC)
[11] = dose: 200.0 mg/kg/injection, schedule: Q04DX003 (ip), vehicle: Klucel (hydroxypropylcellulose) (HPC)
[12] = dose: 400.0 mg/kg/injection, schedule: Q01DX009 (ip), vehicle: Klucel (hydroxypropylcellulose) (HPC)
[13] = dose: 400.0 mg/kg/injection, schedule: Q04DX003 (ip), vehicle: Klucel (hydroxypropylcellulose) (HPC)
[14] = dose: 25.0 mg/kg/injection, schedule: Q01DX009 (ip), vehicle: other
[15] = dose: 50.0 mg/kg/injection, schedule: Q01DX009 (ip), vehicle: other

Measured: T/C

N#CCCN(CCC#N)[N+](=O)[O-]
inactive: dose: 87.5 mg/kg/injection, schedule: Q01DX009 (ip), vehicle: Klucel (hydroxypropylcellulose) (HPC) 97 % of control | [1] 98 % of control | dose: 100.0 mg/kg/injection, schedule: Q04DX002 (ip), vehicle: saline + alcohol 97 % of control | dose: 175.0 mg/kg/injection, schedule: Q01DX009 (ip), vehicle: Klucel (hydroxypropylcellulose) (HPC) 100 % of control | [2] 102 % of control | dose: 200.0 mg/kg/injection, schedule: Q04DX002 (ip), vehicle: saline + alcohol 105 % of control | [3] 87 % of control | dose: 400.0 mg/kg/injection, schedule: Q04DX002 (ip), vehicle: saline + alcohol 101 % of control

c1ccc(-c2cccc[c]2[Hg][c]2ccccc2-c2ccccc2)cc1
inactive: dose: 100.0 mg/kg/injection, schedule: Q01DX001 (ip), vehicle: carboxymethylcellulose (CMC) 96 % of control | dose: 200.0 mg/kg/injection, schedule: Q01DX001 (ip), vehicle: carboxymethylcellulose (CMC) 93 % of control | dose: 400.0 mg/kg/injection, schedule: Q01DX001 (ip), vehicle: carboxymethylcellulose (CMC) 93 % of control

[CH3][Sn]([CH3])([CH3])[Cl]
inactive: dose: 0.12 mg/kg/injection, schedule: Q04DX002 (ip), vehicle: saline 108 % of control | dose: 0.25 mg/kg/injection, schedule: Q04DX002 (ip), vehicle: saline 105 % of control | dose: 0.5 mg/kg/injection, schedule: Q04DX002 (ip), vehicle: saline 108 % of control

C=CC[As](C)(=O)O
inactive: [4] 109 % of control | [5] 94 % of control

O=C(N/N=C/C1CC2C=CC1C2)c1ccncc1 (stereo not drawn)
inactive: dose: 25.0 mg/kg/injection, schedule: Q01DX009 (ip), vehicle: saline with Tween-80 100 % of control | dose: 50.0 mg/kg/injection, schedule: Q01DX009 (ip), vehicle: saline with Tween-80 102 % of control | [6] 95 % of control and 103 % of control

CCCCCCCCC(CCCCCCCC)CCC1CCCCC1
inactive: dose: 100.0 mg/kg/injection, schedule: Q01DX001 (ip), vehicle: saline + alcohol 95 % of control | dose: 200.0 mg/kg/injection, schedule: Q01DX001 (ip), vehicle: saline + alcohol 108 % of control | dose: 400.0 mg/kg/injection, schedule: Q01DX001 (ip), vehicle: saline + alcohol 100 % of control

c1ccc2c(c1)ccc1ccc[s+]c12
inactive: [7] 95 % of control | dose: 50.0 mg/kg/injection, schedule: Q04DX003 (ip), vehicle: Klucel (hydroxypropylcellulose) (HPC) 108 % of control | dose: 100.0 mg/kg/injection, schedule: Q01DX001 (ip), vehicle: acetone 103 % of control | [8] 94 % of control | [9] 104 % of control | dose: 200.0 mg/kg/injection, schedule: Q01DX001 (ip), vehicle: acetone 103 % of control | [10] 97 % of control | [11] 104 % of control | dose: 400.0 mg/kg/injection, schedule: Q01DX001 (ip), vehicle: acetone 106 % of control

O=C1NC(=O)C(O)(O)C(=O)N1
inactive: [4] 104 % of control | [5] 93 % of control

Cc1cc2oc(/C=N/N3CCOCC3)c(C)c2cc1C
inactive: [8] 96 % of control | [9] 90 % of control | [10] 103 % of control | [11] 102 % of control | [12] 99 % of control | [13] 98 % of control

COc1ccc(/C=N/NC(=O)c2ccco2)cc1OC
inactive: dose: 100.0 mg/kg/injection, schedule: Q01DX001 (ip), vehicle: other 93 % of control | dose: 400.0 mg/kg/injection, schedule: Q01DX001 (ip), vehicle: other 96 % of control

COc1ccc(OC)c(CCc2cc(OC)ccc2OC)c1
inactive: dose: 12.5 mg/kg/injection, schedule: Q01DX009 (ip), vehicle: other 93 % of control | [14] 96 % of control | [15] 98 % of control

c1ccc2c(c1)Nc1ccccc1[As]2C1CCCCC1
inactive: dose: 12.5 mg/kg/injection, schedule: Q04DX002 (ip), vehicle: saline with Tween-80 99 % of control | dose: 25.0 mg/kg/injection, schedule: Q04DX002 (ip), vehicle: saline with Tween-80 99 % of control | dose: 50.0 mg/kg/injection, schedule: Q04DX002 (ip), vehicle: saline with Tween-80 101 % of control

CCCCCCCCCCCCCC(=O)[O][Hg][c]1ccccc1
inactive: dose: 75.0 mg/kg/injection, schedule: Q01DX001 (ip), vehicle: steriod suspending solution 96 % of control

CCCCCC(=O)Oc1c(C(C)(C)C)cc([N+](=O)[O-])c(C)c1[N+](=O)[O-]
inactive: dose: 100.0 mg/kg/injection, schedule: Q04DX002 (ip), vehicle: saline 93 % of control | dose: 200.0 mg/kg/injection, schedule: Q04DX002 (ip), vehicle: saline 93 % of control

c1nc2c([nH]1)CCCCC2
inactive: dose: 12.5 mg/kg/injection, schedule: Q01DX001 (ip), vehicle: saline with Tween-80 100 % of control | dose: 25.0 mg/kg/injection, schedule: Q01DX001 (ip), vehicle: saline with Tween-80 97 % of control | [14] 104 % of control and 106 % of control | dose: 25.0 mg/kg/injection, schedule: Q04DX002 (ip), vehicle: other 99 % of control and 110 % of control | dose: 50.0 mg/kg/injection, schedule: Q01DX001 (ip), vehicle: saline with Tween-80 100 % of control | [15] 101 % of control and 88 % of control | dose: 50.0 mg/kg/injection, schedule: Q04DX002 (ip), vehicle: other 105 % of control and 113 % of control | dose: 100.0 mg/kg/injection, schedule: Q04DX002 (ip), vehicle: other 100 % of control and 103 % of control

C=CCOC(=O)c1ccccc1N
inactive: [6] 98 % of control | dose: 100.0 mg/kg/injection, schedule: Q04DX003 (ip), vehicle: saline with Tween-80 104 % of control | dose: 200.0 mg/kg/injection, schedule: Q01DX009 (ip), vehicle: saline with Tween-80 98 % of control | dose: 200.0 mg/kg/injection, schedule: Q04DX003 (ip), vehicle: saline with Tween-80 101 % of control

Nc1nc(N)c(CCCOc2ccccc2)c(-c2ccccc2)n1
inactive: [1] 105 % of control | [2] 101 % of control | [3] 101 % of control

COC1OC2COC(C2OS(=O)(=O)c2ccc(C)cc2)C1OS(=O)(=O)c1ccc(C)cc1 (stereo not drawn)
inactive: dose: 50.0 mg/kg/injection, schedule: Q04DX002 (ip), vehicle: Klucel (hydroxypropylcellulose) (HPC) 94 % of control | [1] 94 % of control | [2] 98 % of control

CC1CCCCC12C(=O)NC(=S)NC2=O (stereo not drawn)
inactive: dose: 75.0 mg/kg/injection, schedule: Q01DX001 (ip), vehicle: other 112 % of control | dose: 150.0 mg/kg/injection, schedule: Q01DX001 (ip), vehicle: other 98 % of control | dose: 300.0 mg/kg/injection, schedule: Q01DX001 (ip), vehicle: other 101 % of control

O=C(O)CC1CCC(NC(=O)NCCCl)CC1 (stereo not drawn)
inactive: dose: 100.0 mg/kg/injection, schedule: Q01DX001 (ip), vehicle: saline with Tween-80 105 % of control | dose: 200.0 mg/kg/injection, schedule: Q01DX001 (ip), vehicle: saline with Tween-80 102 % of control

C=CCOCC(O)CN(CC)c1ccccc1 (stereo not drawn)
inactive: [7] 95 % of control | [8] 96 % of control | [9] 100 % of control | [10] 94 % of control and 102 % of control | [11] 102 % of control | [12] 90 % of control | [13] 100 % of control

C#CC(=O)OCC#CCOC(=O)C#C
inactive: dose: 1.56 mg/kg/injection, schedule: Q01DX009 (ip), vehicle: saline with Tween-80 111 % of control | dose: 3.12 mg/kg/injection, schedule: Q01DX009 (ip), vehicle: saline with Tween-80 101 % of control | dose: 6.25 mg/kg/injection, schedule: Q01DX009 (ip), vehicle: saline with Tween-80 87 % of control and 90 % of control

SC1(S)CN2CCC1CC2
inactive: dose: 6.25 mg/kg/injection, schedule: Q01DX009 (ip), vehicle: saline 96 % of control | dose: 6.25 mg/kg/injection, schedule: Q04DX003 (ip), vehicle: saline 105 % of control | dose: 12.5 mg/kg/injection, schedule: Q01DX009 (ip), vehicle: saline 94 % of control | dose: 12.5 mg/kg/injection, schedule: Q04DX003 (ip), vehicle: saline 91 % of control | dose: 25.0 mg/kg/injection, schedule: Q04DX003 (ip), vehicle: saline 93 % of control
